Reference: the NIST ThermoML archive (doi:10.1021/je0501843)
“And” between values parts separate entries of the source, which are not always exact repeats. Identical values can stand only once.

Test: molar heat capacity at constant volume; wn = mass fraction of the nth substance listed
Conditions: Fluid (supercritical or subcritical phases), Vacuum adiabatic calorimetry, w1 = 0.5001

FC(F)C(F)(F)F [pentafluoroethane] + FCF
Conditions	molar heat capacity at constant volume
301 K, 4414 kPa	70.23 J/K/mol
302 K, 4977 kPa	70.17 J/K/mol
303 K, 5537 kPa	70.3 J/K/mol
303 K, 5540 kPa	70.03 J/K/mol
304 K, 6101 kPa	69.82 J/K/mol
304 K, 6103 kPa	69.96 J/K/mol
305 K, 6663 kPa	69.83 J/K/mol and 69.76 J/K/mol
306 K, 7227 kPa	69.97 J/K/mol
306 K, 7228 kPa	70.45 J/K/mol
307 K, 7791 kPa	70.07 J/K/mol
307 K, 7792 kPa	70.29 J/K/mol
308 K, 8356 kPa	69.75 J/K/mol
308 K, 8357 kPa	69.97 J/K/mol
309 K, 8918 kPa	70.23 J/K/mol and 69.75 J/K/mol
310 K, 9482 kPa	70.03 J/K/mol
310 K, 9484 kPa	69.9 J/K/mol
311 K, 10048 kPa	70.12 J/K/mol
311 K, 10049 kPa	69.86 J/K/mol
312 K, 10614 kPa	69.67 J/K/mol
312 K, 10615 kPa	69.66 J/K/mol
313 K, 11178 kPa	69.33 J/K/mol
313 K, 11179 kPa	69.43 J/K/mol
314 K, 11741 kPa	69.02 J/K/mol
314 K, 11743 kPa	69.3 J/K/mol
315 K, 12309 kPa	69.15 J/K/mol and 68.67 J/K/mol
316 K, 12875 kPa	69.06 J/K/mol
316 K, 12877 kPa	68.75 J/K/mol
317 K, 13440 kPa	68.83 J/K/mol and 68.21 J/K/mol
318 K, 14003 kPa	67.4 J/K/mol
318 K, 14005 kPa	68 J/K/mol
319 K, 14570 kPa	67.78 J/K/mol
319 K, 14571 kPa	68.05 J/K/mol
320 K, 15135 kPa	67.81 J/K/mol
320 K, 15137 kPa	68.49 J/K/mol
321 K, 15700 kPa	67.05 J/K/mol
321 K, 15701 kPa	67.37 J/K/mol
322 K, 16263 kPa	66.48 J/K/mol
322 K, 16265 kPa	66.83 J/K/mol
323 K, 16830 kPa	66.97 J/K/mol and 66.81 J/K/mol
324 K, 17394 kPa	66.92 J/K/mol
324 K, 17396 kPa	66.39 J/K/mol
325 K, 5448 kPa	69.93 J/K/mol
325 K, 17959 kPa	66.13 J/K/mol
325 K, 17961 kPa	66.31 J/K/mol
326 K, 5835 kPa	69.81 J/K/mol
326 K, 5836 kPa	71.48 J/K/mol
326 K, 18524 kPa	65.89 J/K/mol
326 K, 18525 kPa	66.07 J/K/mol
327 K, 6224 kPa	70.12 J/K/mol
327 K, 6225 kPa	69.92 J/K/mol
327 K, 19088 kPa	66.16 J/K/mol
327 K, 19090 kPa	66.42 J/K/mol
328 K, 6615 kPa	70.49 J/K/mol
328 K, 6616 kPa	71.47 J/K/mol
328 K, 19652 kPa	66.1 J/K/mol
328 K, 19655 kPa	66.08 J/K/mol
329 K, 7006 kPa	70.47 J/K/mol
329 K, 7007 kPa	71.63 J/K/mol
330 K, 7397 kPa	69.74 J/K/mol
330 K, 7399 kPa	71.02 J/K/mol
331 K, 7788 kPa	69.69 J/K/mol
331 K, 7790 kPa	71.06 J/K/mol
332 K, 8183 kPa	71.27 J/K/mol
332 K, 8184 kPa	70.57 J/K/mol
333 K, 8579 kPa	70.36 J/K/mol and 71.51 J/K/mol
334 K, 8970 kPa	71.08 J/K/mol
334 K, 8971 kPa	69.51 J/K/mol
335 K, 9364 kPa	69.28 J/K/mol and 70.76 J/K/mol
336 K, 9759 kPa	69.92 J/K/mol and 70.89 J/K/mol
337 K, 10156 kPa	71.33 J/K/mol
337 K, 10157 kPa	70.6 J/K/mol
338 K, 6179 kPa	73.09 J/K/mol
338 K, 10552 kPa	71.08 J/K/mol
338 K, 10553 kPa	69.86 J/K/mol
339 K, 6478 kPa	73.25 J/K/mol
339 K, 10948 kPa	68.64 J/K/mol and 70.46 J/K/mol
340 K, 6782 kPa	73.55 J/K/mol
340 K, 11344 kPa	69.16 J/K/mol
340 K, 11346 kPa	71.1 J/K/mol
341 K, 7089 kPa	73.85 J/K/mol
341 K, 11743 kPa	69.77 J/K/mol
341 K, 11745 kPa	71.13 J/K/mol
342 K, 7389 kPa	73.14 J/K/mol
342 K, 12139 kPa	69.04 J/K/mol
342 K, 12142 kPa	70.69 J/K/mol
343 K, 7693 kPa	72.74 J/K/mol
343 K, 12536 kPa	68.97 J/K/mol
343 K, 12538 kPa	70.99 J/K/mol
344 K, 7998 kPa	73.01 J/K/mol
344 K, 12935 kPa	69.06 J/K/mol
344 K, 12936 kPa	70.57 J/K/mol
345 K, 8306 kPa	73.42 J/K/mol
345 K, 13334 kPa	70.04 J/K/mol
346 K, 8612 kPa	73.52 J/K/mol
346 K, 13733 kPa	70.31 J/K/mol
347 K, 6281 kPa	76.51 J/K/mol
347 K, 8917 kPa	72.76 J/K/mol
347 K, 14131 kPa	69.61 J/K/mol
348 K, 6505 kPa	75.76 J/K/mol
348 K, 9225 kPa	72.31 J/K/mol
348 K, 14528 kPa	69.08 J/K/mol
349 K, 5380 kPa	96.64 J/K/mol
349 K, 6732 kPa	76.89 J/K/mol
349 K, 9535 kPa	72.88 J/K/mol
349 K, 14929 kPa	70.2 J/K/mol
350 K, 5486 kPa	95.02 J/K/mol
350 K, 5543 kPa	91.24 J/K/mol
350 K, 5720 kPa	84.88 J/K/mol
350 K, 6957 kPa	76.37 J/K/mol
350 K, 9844 kPa	72.65 J/K/mol
350 K, 15331 kPa	69.99 J/K/mol
351 K, 5591 kPa	91.71 J/K/mol
351 K, 5661 kPa	90.24 J/K/mol
351 K, 5866 kPa	81.35 J/K/mol
351 K, 7184 kPa	75.16 J/K/mol
351 K, 10153 kPa	72.45 J/K/mol
351 K, 15729 kPa	68.92 J/K/mol
352 K, 5697 kPa	89.08 J/K/mol
352 K, 5778 kPa	87.68 J/K/mol
352 K, 5877 kPa	87.6 J/K/mol
352 K, 6013 kPa	80.15 J/K/mol
352 K, 7411 kPa	74.15 J/K/mol
352 K, 10462 kPa	72.57 J/K/mol
352 K, 16128 kPa	68.79 J/K/mol
353 K, 5802 kPa	88.36 J/K/mol
353 K, 5898 kPa	87.13 J/K/mol
353 K, 6010 kPa	87.42 J/K/mol
353 K, 6163 kPa	80.29 J/K/mol
353 K, 7640 kPa	75.09 J/K/mol
353 K, 10771 kPa	72.4 J/K/mol
353 K, 16529 kPa	69.17 J/K/mol
354 K, 5907 kPa	87.38 J/K/mol
354 K, 6017 kPa	86.01 J/K/mol
354 K, 6144 kPa	86.89 J/K/mol
354 K, 6312 kPa	80.47 J/K/mol
354 K, 7867 kPa	74.78 J/K/mol
354 K, 11082 kPa	72.54 J/K/mol
354 K, 16929 kPa	68.92 J/K/mol
355 K, 6013 kPa	85.59 J/K/mol
355 K, 6136 kPa	84.29 J/K/mol
355 K, 6277 kPa	85.22 J/K/mol
355 K, 6460 kPa	78.25 J/K/mol
355 K, 8099 kPa	73.81 J/K/mol
355 K, 11393 kPa	71.62 J/K/mol
355 K, 17330 kPa	68.05 J/K/mol
356 K, 6119 kPa	85.68 J/K/mol
356 K, 6256 kPa	84 J/K/mol
356 K, 6409 kPa	84.29 J/K/mol
356 K, 6610 kPa	77.58 J/K/mol
356 K, 8331 kPa	73.96 J/K/mol
356 K, 11703 kPa	71.68 J/K/mol
356 K, 17728 kPa	68.48 J/K/mol
357 K, 6227 kPa	86.16 J/K/mol
357 K, 6375 kPa	83.21 J/K/mol
357 K, 6544 kPa	84.6 J/K/mol
357 K, 6762 kPa	78.59 J/K/mol
357 K, 8563 kPa	73.79 J/K/mol
357 K, 12015 kPa	72.2 J/K/mol
357 K, 18129 kPa	68.93 J/K/mol
358 K, 6332 kPa	84.37 J/K/mol
358 K, 6496 kPa	82.34 J/K/mol
358 K, 6679 kPa	84.32 J/K/mol
358 K, 6913 kPa	78.26 J/K/mol
358 K, 8795 kPa	73.5 J/K/mol
358 K, 12328 kPa	72.12 J/K/mol
358 K, 18529 kPa	68.62 J/K/mol
359 K, 6438 kPa	82.91 J/K/mol
359 K, 6616 kPa	81.68 J/K/mol
359 K, 6814 kPa	82.54 J/K/mol
359 K, 7064 kPa	76.43 J/K/mol
359 K, 9028 kPa	72.9 J/K/mol
359 K, 12639 kPa	71.57 J/K/mol
359 K, 18928 kPa	68.27 J/K/mol
360 K, 6544 kPa	82.44 J/K/mol
360 K, 6737 kPa	80.97 J/K/mol
360 K, 6948 kPa	82 J/K/mol
360 K, 7219 kPa	76.78 J/K/mol
360 K, 9258 kPa	72.64 J/K/mol
360 K, 12952 kPa	70.73 J/K/mol
361 K, 6650 kPa	82.84 J/K/mol
361 K, 6858 kPa	80.53 J/K/mol
361 K, 7085 kPa	81.72 J/K/mol
361 K, 7368 kPa	77.24 J/K/mol
361 K, 9493 kPa	73.35 J/K/mol
361 K, 13265 kPa	71.22 J/K/mol
362 K, 6758 kPa	82.74 J/K/mol
362 K, 6980 kPa	80.56 J/K/mol
362 K, 7222 kPa	81.91 J/K/mol
362 K, 7523 kPa	75.41 J/K/mol
362 K, 9726 kPa	73.82 J/K/mol
362 K, 13581 kPa	70.53 J/K/mol
363 K, 6864 kPa	81.25 J/K/mol
363 K, 7101 kPa	80.13 J/K/mol
363 K, 7357 kPa	81.64 J/K/mol
363 K, 7676 kPa	75.63 J/K/mol
363 K, 9958 kPa	73.52 J/K/mol
